Assay results reported in patent US10357486B2, “Treatment of cognitive impairment with PDE4 inhibitor” (Universiteit Maastricht, priority 2013, dated 2019).

Columns and labels:
[1] = test system: xylazine/ketamine induced α2-adrenergic receptor-mediated anesthesia; test: xylazine/ketamine induced α2-adrenergic receptor-mediated anesthesia test (emetic potential); type: in vivo; settings: dose of 3.0 mg/kg
Excerpt: Since emesis is a typical side-effect of phosphodiesterase 4 inhibitors the emetic potential of roflumilast and rolipram was investigated in parallel using the xylazine/ketamine induced α2-adrenergic receptor-mediated anesthesia test. The results confirmed that the two phosphodiesterase 4 inhibitors have different effects on emesis.

[2] = test system: 60 to 80 years old subjects (Impaired Elderly and Healthy Elderly); test: Bond-Lader Visual Analogue Scales (BL-VAS) in 60 to 80 years old subjects, interim analysis; type: in vivo, human; settings: low dose (100 mcg); at 45 min
Description: The study is conducted according to a double-blind, placebo-controlled, four-period cross-over design. Forty healthy subjects, both male and female within an age range of 60 to 80 years are planned to be included in the study in 2 groups: 1) 20 subjects with a memory performance between 1-2 Standard Deviation below the average for their age, gender, and educated level (Impaired Elderly) and 2) 20 subjects with age (±3 years), gender, and educational level matched (in order to speed up the study matching was stopped after the interim analysis) with an average memory performance between 0.5 Standard Deviation below and 0.5 Standard Deviation above from normative values (Healthy Elderly). Classification in terms of impaired or healthy elderly will be determined by a one-off testing of memory performance using the Rey Verbal Learning Task (Rey A; L'examen psychologique dans les cas d'encephalopathy traumatique 1958 Paris; Presses Universitaire de France; or Van der Elst et al; J Int Neuropsychol Soc 2005, 11 (3), pp 290-302) according to fully standardized procedures as applied in The Maastricht Aging Study (Jolles et al; Maastricht Aging Study; determinants of cognitive aging; Maastricht, The Netherlands, Neuropsych Publishers 1995). […]

[3] = Plasma concentration levels of roflumilast and roflumilast-N-oxide in humans; type: in vivo, human
Excerpt: An interim analysis has been performed based on the data of 9 subjects of the Impaired Elderly group and 4 subjects of the Healthy Elderly group. For this purpose, cognitive battery test scores (VLT, SMT, Stroop task and BL-VAS) and concentrations of roflumilast and roflumilast-N-oxide in plasma have been analysed and summarized by dose over each scheduled sampling time using descriptive statistics.

O=C(Nc1c(Cl)cncc1Cl)c1ccc(OC(F)F)c(OCC2CC2)c1 [roflumilast, N-(3,5-dichloropyridin-4-yl)-3-cyclopropylmethoxy-4-difluoromethoxybenzamide]
emetic potential [1]: tendency towards emetic potential
(subjective) alertness in comparison with placebo, based on BL-VAS scores [2]: significantly higher
exposure (concentrations in plasma) ([3]; elderly study, interim analysis, 100, 250, 1000 mcg): consistent with those previously reported
steady state plasma concentration levels in once a day repeated dosing compared to once a day single dosing ([3]; humans, once a day (24 h) regimen): about two-fold
